Data taken from article PMC7789354 (BMC Gastroenterology, 2021).

Key:
[1] = tested on: proximal jejunum; assay: In situ jejunal perfusion, OCT absorption into portal vein blood; format: in vivo, rat; conditions: for AUC, % of the correspondent control group (Group A1): PH rats; for AUC, % of the correspondent control group (Group A1) / AUC, % of the correspondent control (Group A; OCT only): portal vein blood 5-60 min; for AUC, % of the correspondent control (Group A; OCT only): healthy rats
Procedure: The experimental procedure was performed as previously reported. Briefly, the mean length of the proximal jejunum (approximately 2 cm distal to the ligament of Treitz) was 10 ± 1 cm. An oxygenated Krebs–Ringer bicarbonate buffer (KRB) solution (pH 7.4) containing 0.5 mM MgCl2, 4.5 mM KCl, 120 mM NaCl, 0.7 mM Na2HPO4, 1.5 mM NaH2PO4, 1.2 mM CaCl2, 15 mM NaHCO3, and 10 mM glucose was perfused at a flow rate of 0.4 mL/min using a peristaltic pump through an inlet tube kept at 37 °C. […] The AUC was calculated using the integral method. These experiments were performed both in healthy and PH rats; the latter was called Group A1, B1, C1, and D1 (n = 4 per group).
(§1) Frozen samples were thawed at room temperature prior to their preparation. A 200-µL aliquot of cell lysate containing 1 mL Tris, 99 mL D-Hank’s, and 200 µL methyl cyanide was mixed with the sample obtained from Caco-2 experiments. The mixture was then vortexed for 1 min and centrifuged at 12,000×g for 10 min. The supernatant was transferred to a clean glass tube and evaporated to dryness at 40 °C under nitrogen. A 10-μL aliquot was injected for LC − MS/MS analysis. A total of 200 μL methanol was added to a 50-μL sample of plasma, and the mixture was vortexed and centrifuged as described above to remove precipitated proteins. A total of 200 μL supernatant was transferred and evaporated as described for the Caco-2 samples. The residue was then diluted with 100 μL mobile phase and an aliquot of 10 μL was used for LC − MS/MS analysis.
(§2) Isocratic chromatographic separation was performed using a Hypersil BDS-C18 column (150 mm × 4.6 mm i.d., 5 µm; Dalian Elite Analytical Instruments Co. Ltd., China) maintained at room temperature. A mixture of 40% methanol-60% water with 0.1% formic acid (60:40, v/v) was used as the mobile phase at a flow rate of 0.5 mL/min. An API 3200 triple-quadrupole mass spectrometer (Applied Biosystems, Concord, Ontario, Canada) was operated with a Turbo Ionspray interface in positive ion mode. The ion spray voltage was set to + […], heater gas temperature to 500 °C, nebulizer gas (Gas 1) at 40 psi, heater gas (Gas 2) at 40 psi, curtain gas at 10 psi, and collision gas at 16 psi.

[2] = tested on: jejunum everted sac; assay: In vitro everted intestinal sac preparation, OCT uptake; format: in vitro ADME, rat; conditions: for AUC, % of the correspondent control group (Group A1): PH rats; for AUC, % of the correspondent control group (Group A1) / AUC, % of the correspondent control group (Group A): sac lumen 10-120 min; for AUC, % of the correspondent control group (Group A): healthy rats
Procedure: Rat jejunum (10 ± 1 cm) was transected approximately 2 cm distal to the ligament of Treitz. […] The AUC was calculated using the trapezoid method. These experiments were performed in both control and PH rats; the latter was called Group A1, B1, C1, and D1 (n = 4 per group).
as §2

[3] = Bi-directional Caco-2 permeability (transport) assay; format: in vitro ADME, human
Procedure: (§3) Caco-2 cells (purchased from the Type Culture Collection of the Chinese Academy of Sciences, Shanghai, China) at passage 30 to 33 were used in this study. Cells were routinely cultured as previously described with minor modifications. Cells were seeded onto Transwell inserts in 12-well dishes at a density of 5 × 10^5 cells/well (#3401; 0.4 µm pore size, growth area of 1.13 cm^2, Corning, NY, USA), and the medium was replaced with D-Hanks solution every other day except for the treatment days.
Cell monolayer integrity was evaluated through the transepithelial electrical resistance (TEER) using a Millicell ERS resistance system (Millipore, Bedford, MA, USA) at 37 °C. Each TEER value was corrected for background resistance determined on an extracellular matrix-coated cell culture insert without cells.
Caco-2 transport study was performed as previously described. […] A to B assay was performed to determine the extent of OCT absorption, while B to A assay was performed to measure OCT secretion. As regard A to B assay, the apical (upper) chamber was filled with 1.6 mL test drug solution in HBSS, while the receiver basolateral (lower) compartment was filled with 0.6 mL HBSS alone. Conversely, in B to A assay the upper and lower chambers were filled with 0.6 mL HBSS and 1.6 mL test drug, respectively. […] The TEER value was determined at different incubation times to verify the integrity of the monolayer after buffer change. […] The permeability direction rate (PDR) was calculated by the ratio of Papp in the B to A direction versus that in the A to B direction, as follows: PDR=Papp(BtoA)/Papp(AtoB)
as §1, §2

[4] = tested on: Caco-2 cells; format: cell-based, human; conditions: OCT concentrations of 1, 10, and 50 µM; data not shown
Procedure: as §3

[5] = tested on: CYP3A; assay: OCT metabolism by CYP3A in rat intestinal microsomes; format: in vitro ADME
Procedure: Microsomes from the small intestine of healthy rats and PH rats were obtained as previously described, and their protein concentration (0.53 ± 0.05 mg/mL and 0.52 ± 0.06 mg/mL total protein, respectively) was measured using the BCA method (Beijing Solarbio Science & Technology Co., Ltd). […] CYP3A activity was measured using a fluorescent quantitative detection kit (Genmed Scientifics Inc., U.S.A.) with the NADPH regenerating system after pre-incubation at 37 °C for 0, 2, 10, 20 or 30 min. […] The organic phase was evaporated to dryness and the OCT content in the residue was measured by LC–MS/MS.
Each sample was tested 3 times.
as §2

[6] = target: T1, recombinant human CYP3A4 (Homo sapiens, UniProt P08684); assay: OCT metabolism by recombinant human cytochrome P450 3A4; format: in vitro ADME; conditions: 10 min incubation, CYP3A4 2.5 mg/mL, NADPH; many different metabolites by LC–MS/MS
T1 construct: purchased BD Gentest (Supersomes)
T1 sequence (P08684 whole entry): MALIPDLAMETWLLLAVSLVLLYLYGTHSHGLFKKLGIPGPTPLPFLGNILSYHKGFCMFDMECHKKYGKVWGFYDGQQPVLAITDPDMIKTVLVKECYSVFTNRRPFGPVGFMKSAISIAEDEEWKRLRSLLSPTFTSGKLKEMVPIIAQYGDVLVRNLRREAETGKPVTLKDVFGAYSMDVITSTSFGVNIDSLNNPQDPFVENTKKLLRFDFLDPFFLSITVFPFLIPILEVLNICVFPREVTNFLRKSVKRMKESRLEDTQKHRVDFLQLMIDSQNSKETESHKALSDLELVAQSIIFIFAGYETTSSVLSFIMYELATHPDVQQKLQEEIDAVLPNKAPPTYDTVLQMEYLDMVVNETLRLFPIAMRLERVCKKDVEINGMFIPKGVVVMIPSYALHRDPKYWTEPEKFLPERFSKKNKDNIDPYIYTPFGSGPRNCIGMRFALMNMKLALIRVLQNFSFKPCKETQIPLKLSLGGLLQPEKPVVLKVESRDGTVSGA
Procedure: All incubations were performed at 37 °C in a water bath. Recombinant human cDNA-expressing P450 isozyme 3A4 (BD Gentest Supersomes) was carefully thawed on ice prior to each experiment. […] […] Control samples without NADPH and samples without OCT were also included. […] Each sample was tested 4 times.
as §2

[7] = target: T1, recombinant human CYP3A4; assay: CYP3A4 activity with and without OCT incubation (fluorescent quantitative detection kit); format: biochemical; conditions: OCT 400 mM
Procedure: All incubations were performed at 37 °C in a water bath. Recombinant human cDNA-expressing P450 isozyme 3A4 (BD Gentest Supersomes) was carefully thawed on ice prior to each experiment. […] After a 5-min pre-incubation at 37 °C, the reaction was started by the addition of NADPH and ended 30 min later by the addition of 500 µL methanol. Control samples without NADPH and samples without OCT were also included. […] Each sample was tested 4 times.

[8] = 10 µM OCT alone, PH rats versus healthy rats
[9] = 10 µM OCT plus 1 mM probenecid (Group C1)
[10] = 10 µM OCT plus 1 mM verapamil hydrochloride (Group B1)
[11] = 10 µM OCT plus 1 mM verapamil hydrochloride plus 1 mM probenecid (Group D1)
[12] = 10 µM OCT plus 1 mM probenecid (Group C)
[13] = 10 µM OCT plus 1 mM verapamil hydrochloride (Group B)
[14] = 10 µM OCT plus 1 mM verapamil hydrochloride plus 1 mM probenecid (Group D)
[15] = Caco-2, OCT 1 μM, Control (no inhibitor)
[16] = Caco-2, OCT 1 μM, MRP2 and P-gp inhibition
[17] = Caco-2, OCT 1 μM, MRP2 inhibition (probenecid 1 mM)
[18] = Caco-2, OCT 1 μM, P-gp inhibition (rhodamine 123 1 mM)
[19] = Caco-2, OCT 10 μM, Control (no inhibitor)
[20] = Caco-2, OCT 10 μM, MRP2 and P-gp inhibition
[21] = Caco-2, OCT 10 μM, MRP2 inhibition (probenecid 1 mM)
[22] = Caco-2, OCT 10 μM, P-gp inhibition (rhodamine 123 1 mM)
[23] = Caco-2, OCT 50 μM, Control (no inhibitor)
[24] = Caco-2, OCT 50 μM, MRP2 and P-gp inhibition
[25] = Caco-2, OCT 50 μM, MRP2 inhibition (probenecid 1 mM)
[26] = Caco-2, OCT 50 μM, P-gp inhibition (rhodamine 123 1 mM)

**Q.** What does the source list for `C[C@@H](O)[C@@H]1NC(=O)[C@H](CCCCN)NC(=O)[C@@H](Cc2c[nH]c3ccccc23)NC(=O)[C@H](Cc2ccccc2)NC(=O)[C@@H](NC(=O)[C@H](N)Cc2ccccc2)CSSC[C@@H](C(=O)N[C@H](CO)[C@@H](C)O)NC1=O` [OCT, octreotide]?
**A.** AUC of group A1 as % of group A [1, 8]: 96%; AUC, % of the correspondent control group (Group A1) [1, 9]: 236.28%; AUC, % of the correspondent control group (Group A1) [1, 10]: 384.61%; AUC, % of the correspondent control group (Group A1) [1, 11]: 461.78%; AUC, % of the correspondent control (Group A; OCT only) [1, 12]: 418.95%; AUC, % of the correspondent control (Group A; OCT only) [1, 13]: 521.08%; AUC, % of the correspondent control (Group A; OCT only) [1, 14]: 618.40%; AUC of group A1 as % of group A [2, 8]: 21.54%; AUC, % of the correspondent control group (Group A1) [2, 9]: 128.23%; AUC, % of the correspondent control group (Group A1) [2, 10]: 151.82%; AUC, % of the correspondent control group (Group A1) [2, 11]: 165.33%; AUC, % of the correspondent control group (Group A) [2, 12]: 151.39%; AUC, % of the correspondent control group (Group A) [2, 13]: 176.22%; AUC, % of the correspondent control group (Group A) [2, 14]: 220.63%; Papp A→B [3, 15]: 0.005 ± 0.001 ×10⁻⁶ cm/s; Papp B→A [3, 15]: 0.021 ± 0.003 ×10⁻⁶ cm/s; Papp A→B [3, 16]: 0.022 ± 0.002 ×10⁻⁶ cm/s; Papp B→A [3, 16]: 0.006 ± 0.001 ×10⁻⁶ cm/s; Papp A→B [3, 17]: 0.007 ± 0.001 ×10⁻⁶ cm/s; Papp B→A [3, 17]: 0.006 ± 0.001 ×10⁻⁶ cm/s; Papp A→B [3, 18]: 0.01 ± 0.001 ×10⁻⁶ cm/s; Papp B→A [3, 18]: 0.012 ± 0.002 ×10⁻⁶ cm/s; Papp A→B [3, 19]: 0.127 ± 0.015 ×10⁻⁶ cm/s; Papp B→A [3, 19]: 0.565 ± 0.073 ×10⁻⁶ cm/s; Papp A→B [3, 20]: 0.368 ± 0.055 ×10⁻⁶ cm/s; Papp B→A [3, 20]: 0.193 ± 0.021 ×10⁻⁶ cm/s; Papp A→B [3, 21]: 0.149 ± 0.016 ×10⁻⁶ cm/s; Papp B→A [3, 21]: 0.31 ± 0.025 ×10⁻⁶ cm/s; Papp A→B [3, 22]: 0.168 ± 0.018 ×10⁻⁶ cm/s; Papp B→A [3, 22]: 0.297 ± 0.024 ×10⁻⁶ cm/s; Papp A→B [3, 23]: 0.23 ± 0.021 ×10⁻⁶ cm/s; Papp B→A [3, 23]: 1.33 ± 0.16 ×10⁻⁶ cm/s; Papp A→B [3, 24]: 1.73 ± 0.138 ×10⁻⁶ cm/s; Papp B→A [3, 24]: 0.981 ± 0.082 ×10⁻⁶ cm/s; Papp A→B [3, 25]: 0.353 ± 0.032 ×10⁻⁶ cm/s; Papp B→A [3, 25]: 1.13 ± 0.097 ×10⁻⁶ cm/s; Papp A→B [3, 26]: 1.19 ± 0.072 ×10⁻⁶ cm/s; Papp B→A [3, 26]: 1.04 ± 0.084 ×10⁻⁶ cm/s; Caco-2 cell death (LDH-cytotoxicity assay) [4]: No sign of Caco-2 cell death; OCT level, PH + OCT group versus N + OCT group ([5]; intestinal microsomes of PH versus healthy rats, OCT 1000 ng/mL, 37 °C, p < 0.05): significantly lower; OCT level in the presence of the CYP3A inhibitor ketoconazole ([5]; intestinal microsomes of healthy and PH rats, OCT 1000 ng/mL, ketoconazole 10 µM, p < 0.01): significantly and equally increased; Metabolism of OCT by CYP3A ([5]; rat intestinal microsomes, NADPH-generating system): metabolized by CYP3A; Metabolism of OCT by recombinant human CYP3A4 [6]: CYP3A4 metabolized OCT; Change in activity of recombinant human CYP3A4 after pre-incubation with OCT [7]: No changes
